The values below come from patent US20040161415A1, “Antitumor and antiviral medications and method for producing the same” (Lymphotec Inc., priority 2001, published 2004).

SMILES strings stand for the structures.

The subject of this assay is EL-4 cells (mouse-derived cancer cells). In words: Measurement of antitumor effect: survival of C57BL/6 mice after intraperitoneal injection of EL-4 cells. The format is in vivo. The settings on record: for Number of surviving mice: C57BL/6 mice with 5×10^4 EL-4 cells i.p., reserpine 200 μg/kg s.c. every four days. How it is done:
Lymphocytes were collected from the spleen of a C57BL/6 mouse by first aseptically taking out the spleen, and mashing up the spleen with a pair of tweezers in a culture dish having a culture solution containing blood serum from cattle embryo The solution including the flaked spleen was filtrated through a mesh to obtain lymphocyte suspension. The lymphocyte suspension was transferred by 50 ml to a centrifuging tube with a pipette and centrifuged at 1500 rpm for 10 minutes.
After centrifugation, supernatant fluid was removed, and a culture solution was added to obtain 2×10^6/ml of solution. The resultant solution thus obtained was transferred to a culture dish containing solid-phase anti-CD3 antibody from a mouse and further cultivated for 4 days on a continuing basis. The resultant solution was farther rinsed with phosphate buffer (occasionally abbreviated as PBS) two times, thus to prepare lymphocytes before heating treatment.
After cultivating EL-4 cells (mouse-derived cancer cells) at 37° C. in an atmosphere of 5% carbon dioxide gas in a flask for 3 days, 50 ml of culture solution containing El-4 cells were transferred to a centrifuging tube with a pipette and centrifuged at 1500 rpm for 10 minutes. After centrifugation, supernatant fluid was removed, and pH-adjusted RPMI1640 culture medium was added thereto, and brought into suspension. Then, the resultant solution thus obtained was again centrifuged at 1500 rpm for 10 minutes, and hereafter, supernatant fluid was removed. Again supernatant fluid was removed, and the pH-adjusted RPMI1640 culture medium prepared previously was added thereto, and brought into suspension. Into the abdominal cavity of each C57BL/6 mouse, 5×10^4 of EL-4 cells in the ultimate solution resultantly obtained was injected to introduce the cancer cells thereinto.
After introducing the EL-4 cells, 3×10^6 of activated lymphocytes treated with heat, which were prepared in Example 1 described above were administered intravenously with administering subcutaneously reserpine thereto. To each mouse of a subject group, reserpine was subcutaneously given by 200 μg/kg every four days together with the […] lymphocytes, and to another control group composed of twelve mice, only the reserpine was given by 200 μg/kg every four days. The reserpine of Rauwolfia serpentina extract was used in this embodiment, but it may be made from a compound extracted from Rauwolfia serpentina or other compounds. Although the reserpine solely may be used as mentioned above, but it may be used as a secondary agent with other primary additives.

As for `COC(=O)[C@H]1[C@H]2C[C@@H]3c4[nH]c5cc(OC)ccc5c4CCN3C[C@H]2C[C@@H](OC(=O)c2cc(OC)c(OC)c(OC)c2)[C@@H]1OC` [Resrpine, reserpine], the “Number of surviving mice” value (lapsed days 23) is on record as 12; the “Number of surviving mice” value (lapsed days 24) amounted to 12; the “Number of surviving mice” value (lapsed days 25) was 12; the “Number of surviving mice” value (lapsed days 26) amounted to 11; the “Number of surviving mice” value (lapsed days 27) is reported as 11; the “Number of surviving mice” value (lapsed days 28) is 11. For the same compound, the “Number of surviving mice” value runs as follows: (lapsed days 29) 9; (lapsed days 30) 8; (lapsed days 31) 8; (lapsed days 32) 6; (lapsed days 33) 6; (lapsed days 34) 4. Further, the “Number of surviving mice” value (lapsed days 35) was 3. Also, the “antitumor effect (survival rate of mice observed with time)” value (result in words, summary of Table 1, EL-4 bearing C57BL/6 mice) was “brings about an antitumor effect”.
